The source made the active and inactive calls. No cut-off for these calls is given here.
Tests used:
L02 [1] = test: Hepatoprotective activity against concanavalin A induced liver injury in human HL7702 cells assessed as cell survival rate at 5 uM preincubated for 12 hrs followed by concanavalin A stimulation for 12 hrs by MTT assay (reference value: 51.37%); format: functional; settings: time 24 hrs, read-out: Survival
L02 [2] = test: Cytotoxicity against human HL7702 cells ssessed as cell survival rate at 5 uM for 12 hrs by MTT assay; format: toxicity, cell-based; settings: l02, 12 h
L02 [3] = test: Hepatoprotective activity against concanavalin A induced human HL7702 cell apoptosis assessed as decrease in cleaved caspase-3 level at 5 uM preincubated for 12 hrs followed by concanavalin A stimulation for 12 hrs by Western blot analysis; format: functional, cell-based; settings: time 24.0 hrs
L02 [4] = test: Hepatoprotective activity against concanavalin A induced human HL7702 cell apoptosis assessed as increase in Bcl-2 expression level at 5 uM preincubated for 12 hrs followed by concanavalin A stimulation for 12 hrs by Western blot analysis; format: functional, cell-based; settings: time 24.0 hrs
L02 [5] = test: Hepatoprotective activity against concanavalin A induced human HL7702 cell apoptosis assessed as nuclear morphological changes at 5 uM preincubated for 12 hrs followed by concanavalin A stimulation for 12 hrs by Hoechst 33342 staining based fluorescence microscopy; format: functional; settings: time 24.0 hrs
L02 [6] = test: Hepatoprotective activity against concanavalin A induced human HL7702 cell apoptosis assessed as decrease in Bax expression level at 5 uM preincubated for 12 hrs followed by concanavalin A stimulation for 12 hrs by Western blot analysis; format: functional, cell-based; settings: time 24.0 hrs
Mus musculus [7] = test: (§1) Hepatoprotective activity against concanavalin A induced C57BL/6 mouse livery injury model assessed as decrease in serum IL-6 level at 150 mg/kg, ip once daily for 2 weeks followed by concanavalin A stimulation and measured after 12 hrs by ELISA; format: functional, organism-based
L02 [8] = test: Hepatoprotective activity against concanavalin A induced livery injury in human HL7702 assessed as decrease in IL-6 expression level at 5 uM preincubated for 24 hrs followed by concanavalin A stimulation for 12 hrs by ELISA assay; format: functional, cell-based; settings: time 36.0 hrs
L02 [9] = test: Hepatoprotective activity against concanavalin A induced livery injury in human HL7702 assessed as decrease in IL-6 expression level at 5 uM preincubated for 12 hrs followed by concanavalin A stimulation for 12 hrs by Western blot analysis; format: functional, cell-based; settings: time 24.0 hrs
Mus musculus [10] = test: Hepatoprotective activity against concanavalin A induced C57BL/6 mouse livery injury model assessed as decrease in severity of liver damage at 150 mg/kg, ip once daily for 2 weeks followed by concanavalin A stimulation and measured after 12 hrs by H&E staining based […]; format: functional, organism-based
Mus musculus [11] = test: as §1, with “phosphorylated STAT3” for “serum IL-6”, “level in liver” for “level”, “DAB staining based immunohistological anlaysis” for “ELISA”; format: functional, organism-based
Mus musculus [12] = test: as §1, with “cleaved caspase-3” for “serum IL-6”, “level in liver” for “level”, “DAB staining based immunohistological anlaysis” for “ELISA”; format: functional, organism-based
Mus musculus [13] = test: Hepatoprotective activity against concanavalin A induced C57BL/6 mouse livery injury model assessed as decrease in cleaved caspase 3 level at 150 mg/kg, ip once daily for 2 weeks followed by concanavalin A stimulation and measured after 12 hrs by Western blot analysis; format: functional, organism-based
Mus musculus [14] = test: Hepatoprotective activity against concanavalin A induced C57BL/6 mouse livery injury model assessed as decrease in JAK2 phosphorylation level at 150 mg/kg, ip once daily for 2 weeks followed by concanavalin A stimulation and measured after 12 hrs by Western blot analysis; format: functional, organism-based
Mus musculus [15] = test: Hepatoprotective activity against concanavalin A induced C57BL/6 mouse livery injury model assessed as decrease in STAT3 phosphorylation level at 150 mg/kg, ip once daily for 2 weeks followed by concanavalin A stimulation and measured after 12 hrs by Western blot analysis; format: functional, organism-based
Mus musculus [16] = test: Hepatoprotective activity against concanavalin A induced C57BL/6 mouse livery injury model assessed as decrease in Bax level at 150 mg/kg, ip once daily for 2 weeks followed by concanavalin A stimulation and measured after 12 hrs by Western blot analysis; format: functional, organism-based
Mus musculus [17] = test: Hepatoprotective activity against concanavalin A induced C57BL/6 mouse livery injury model assessed as decrease in serum AST level at 150 mg/kg, ip once daily for 2 weeks followed by concanavalin A stimulation and measured after 12 hrs; format: functional, organism-based
Mus musculus [18] = test: Hepatoprotective activity against concanavalin A induced C57BL/6 mouse livery injury model assessed as increase in Bcl-2 level at 150 mg/kg, ip once daily for 2 weeks followed by concanavalin A stimulation and measured after 12 hrs by Western blot analysis; format: functional, organism-based
Mus musculus [19] = test: Hepatoprotective activity against concanavalin A induced C57BL/6 mouse livery injury model assessed as decrease in serum ALT level at 150 mg/kg, ip once daily for 2 weeks followed by concanavalin A stimulation and measured after 12 hrs; format: functional, organism-based

Compound `COc1cc2c(c(OC)c1OC)-c1c(O)c(OC)c(OC)c(Cl)c1CC(C)C(C)C2` (stereo not given) has a viability at 5 µM (L02 [1]) of 72.5%.

`COc1c(Cl)c2c(c(OC)c1OC)-c1c(c(Cl)c(OC)c(OC)c1OC(=O)c1ccc([N+](=O)[O-])cc1)CC(C)C(C)C2` (stereo not given) was tested, and the viability at 5 µM (L02 [1]) was 59.4%.

With `COc1c(Cl)c2c(c(OC)c1OC)-c1c(c(Cl)c(OC)c(OC)c1OC(=O)c1cccs1)CC(C)C(C)C2` (stereo not given) the viability at 5 µM (L02 [1]) was 80.4%.

`COc1cc2c(c(OC)c1OC)-c1c(c(Cl)c(OC)c(OC)c1OC(=O)c1ccc(C(F)(F)F)cc1)CC(C)C(C)C2` (stereo not given) showed a viability at 5 µM (L02 [1]) of 61.8%.

For `COc1c(Cl)c2c(c(OC)c1OC)-c1c(c(Cl)c(OC)c(OC)c1OCCCOC(=O)C(CCSC)NC(=O)OC(C)(C)C)CC(C)C(C)C2` (stereo not given), the viability at 5 µM (L02 [1]) was 90.8%, the Activity (L02 [2]) was “Non-Toxic” and the Activity (L02 [3]) was “Active”. The Activity (L02 [4]) was “Active”, the Activity (L02 [5]) was “Active” and the Activity (L02 [6]) was “Active”.

`COc1c(Cl)c2c(c(OC)c1OC)-c1c(c(Cl)c(OC)c(OC)c1OC(=O)c1cccnc1)CC(C)C(C)C2` (stereo not given) gave a viability at 5 µM (L02 [1]) of 79.4%.

With `COc1cc2c(c(OC)c1OC)-c1c(c(Cl)c(OC)c(OC)c1OCCCOC(=O)/C=C/c1ccccc1)CC(C)C(C)C2` (stereo not given) the viability at 5 µM (L02 [1]) was 71%.

`COc1ccc(C(=O)Oc2c(OC)c(OC)c(Cl)c3c2-c2c(c(Cl)c(OC)c(OC)c2OC)CC(C)C(C)C3)cc1` (stereo not given) gave a viability at 5 µM (L02 [1]) of 53.6%.

In the case of `COC(=O)c1ccc(-c2ccc(C(=O)OC)cc2)cc1` [BIPHENYL DIMETHYL DICARBOXYLATE], the Activity (Mus musculus [7]) was “Active”, the Activity (L02 [8]) was “Active” and the Activity (L02 [9]) was “Active”. The Activity (Mus musculus [10]) was “Active”, the Activity (Mus musculus [11]) was “Active” and the Activity (Mus musculus [12]) was “Active”. For the same compound, the viability at 5 µM (L02 [1]) was 63.9%, the Activity (Mus musculus [13]) was “Active” and the Activity (Mus musculus [14]) was “Active”. For the same compound, the Activity (Mus musculus [15]) was “Active”, the Activity (Mus musculus [16]) was “Active” and the Activity (Mus musculus [17]) was “Active”. For the same compound, the Activity (Mus musculus [18]) was “Active” and the Activity (Mus musculus [19]) was “Active”.

`COc1c(O)c2c(c(Cl)c1OC)CC(C)C(C)Cc1c(Cl)c(OC)c(OC)c(OC)c1-2` (stereo not given) showed a viability at 5 µM (L02 [1]) of 67.3%.

Compound `COc1cc2c(c(OC)c1OC)-c1c(O)c(OC)c(OC)c([N+](=O)[O-])c1CC(C)C(C)C2` (stereo not given) has a viability at 5 µM (L02 [1]) of 70.2%.

`COC1=C(OC)C(OC)CC2=C1c1c(c([N+](=O)[O-])c(OC)c(OC)c1OCCCO)CC(C)C(C)C2` (stereo not given) was tested, and the viability at 5 µM (L02 [1]) was 73.1%.
